Laboratory results: EPA's CvTdb concentration-time database

Columns and labels:
Rat [1] = assay: concentration in plasma after dosing; settings: dosed: Wyeth-14643, 1.0 mg/kg, oral, Male, Sprague-Dawley
Rat [2] = assay: concentration in plasma after dosing; settings: dosed: Bis 2-Chloroethoxy Methane, 40 mg/kg, iv, Male, Harlan Sprague Dawley
Rat [3] = assay: concentration in thymus after dosing; settings: 6 h; dosed: Bis 2-Chloroethoxy Methane; 20 mg/kg; iv; Female; F344
Rat [4] = assay: concentration in heart after dosing; settings: 20 min; dosed: Bis 2-Chloroethoxy Methane; 20 mg/kg; iv; Male; F344
Rat [5] = assay: concentration in plasma after dosing; settings: 4 h; dosed: Bis 2-Chloroethoxy Methane; 40 mg/kg; iv; Male; Harlan Sprague Dawley
Rat [6] = assay: concentration in thymus after dosing; settings: 40 min; dosed: Bis 2-Chloroethoxy Methane; 20 mg/kg; iv; Female; F344
Rat [7] = assay: concentration in plasma after dosing; settings: 10 min; dosed: Bis 2-Chloroethoxy Methane; 20 mg/kg; iv; Female; F344
Rat [8] = assay: concentration in heart after dosing; settings: 20 min; dosed: Bis 2-Chloroethoxy Methane; 20 mg/kg; iv; Male; F344; remark: listed apart in the source
Rat [9] = assay: concentration in liver after dosing; settings: 2 h; dosed: Bis 2-Chloroethoxy Methane; 20 mg/kg; iv; Male; F344
Rat [10] = assay: concentration in heart after dosing; settings: 40 min; dosed: Bis 2-Chloroethoxy Methane; 20 mg/kg; iv; Male; F344
Rat [11] = assay: concentration in plasma after dosing; settings: 40 min; dosed: Bis 2-Chloroethoxy Methane; 20 mg/kg; iv; Male; F344
Rat [12] = assay: concentration in brain after dosing; settings: 0.5 h; dosed: Fluorotelomer alcohol 8+2; 80 mg/kg; oral; Female; Harlan Sprague Dawley
Rat [13] = assay: concentration in liver after dosing; settings: 6 h; dosed: Fluorotelomer alcohol 8+2; 24 mg/kg; oral; Male; Harlan Sprague Dawley
Rat [14] = assay: concentration in plasma after dosing; settings: dosed: Fluorotelomer alcohol 8+2, 24 mg/kg, oral, Male, Harlan Sprague Dawley
Rat [15] = assay: concentration in plasma after dosing; settings: dosed: Fluorotelomer alcohol 8+2, 12 mg/kg, iv, Male, F344
Rat [16] = assay: concentration in plasma after dosing; settings: 40 min; dosed: Di-n-butyl phthalate; 50 mg/kg; oral; Male; Sprague-Dawley
Rat [17] = assay: concentration in plasma after dosing; settings: 20 h; dosed: Di-n-butyl phthalate; 100 mg/kg; oral; Male; Sprague-Dawley
Rat [18] = assay: concentration in plasma after dosing; settings: 4 h; dosed: Di-n-butyl phthalate; 100 mg/kg; oral; Male; Sprague-Dawley
Rat [19] = assay: concentration in plasma after dosing; settings: 3 h; dosed: Di-n-butyl phthalate; 50 mg/kg; oral; Male; Sprague-Dawley
Rat [20] = assay: concentration in plasma after dosing; settings: 3 h; dosed: Di-n-butyl phthalate; 100 mg/kg; oral; Male; Sprague-Dawley
Rat [21] = assay: concentration in plasma after dosing; settings: 10 min; dosed: Di-n-butyl phthalate; 50 mg/kg; oral; Male; Sprague-Dawley
Rat [22] = assay: concentration in plasma after dosing; settings: 1 h; dosed: Di-n-butyl phthalate; 100 mg/kg; oral; Male; Sprague-Dawley
Rat [23] = assay: concentration in kidney after dosing; settings: 3360 h; dosed: Perfluorodecanoic acid; 10 mg/kg; oral; Male; Harlan Sprague Dawley
Rat [24] = assay: concentration in plasma after dosing; settings: dosed: Perfluorodecanoic acid, 2 mg/kg, iv, Male, F344
Rat [25] = assay: concentration in kidney after dosing; settings: 24 h; dosed: Perfluorodecanoic acid; 10 mg/kg; oral; Female; Harlan Sprague Dawley
Rat [26] = assay: concentration in plasma after dosing; settings: dosed: Perfluorodecanoic acid, 2 mg/kg, iv, Male, F344; remark: listed apart in the source
Rat [27] = assay: concentration in plasma after dosing; settings: 18 h; dosed: Primidone; 30 mg/kg; oral; Male; F344
Rat [28] = assay: concentration in plasma after dosing; settings: 3 h; dosed: Primidone; 130 mg/kg; oral; Female; F344
Rat [29] = assay: concentration in plasma after dosing; settings: 9 h; dosed: Primidone; 130 mg/kg; oral; Female; F344
Rat [30] = assay: concentration in plasma after dosing; settings: 1.5 h; dosed: Primidone; 130 mg/kg; oral; Female; F344
Rat [31] = assay: concentration in heart after dosing; settings: 3 h; dosed: Thiodiglycolic Acid; 20 mg/kg; iv; Female; Harlan Sprague Dawley
Rat [32] = assay: concentration in heart after dosing; settings: 20 min; dosed: Thiodiglycolic Acid; 20 mg/kg; iv; Female; Harlan Sprague Dawley
Rat [33] = assay: concentration in plasma after dosing; settings: 3 h; dosed: Thiodiglycolic Acid; 20 mg/kg; iv; Female; Harlan Sprague Dawley
Rat [34] = assay: concentration in plasma after dosing; settings: 2 h; dosed: Thiodiglycolic Acid; 20 mg/kg; iv; Female; Harlan Sprague Dawley
Rat [35] = assay: concentration in thymus after dosing; settings: 1 h; dosed: Thiodiglycolic Acid; 20 mg/kg; iv; Female; Harlan Sprague Dawley
Rat [36] = assay: concentration in plasma after dosing; settings: dosed: dichloroacetic acid, 40 mg/kg, oral, Female, Harlan Sprague Dawley
Rat [37] = assay: concentration in plasma after dosing; settings: dosed: dichloroacetic acid, 40 mg/kg, oral, Female, Harlan Sprague Dawley; remark: listed apart in the source
Rat [38] = assay: concentration in plasma after dosing; settings: 40 min; dosed: dichloroacetic acid; 100 mg/kg; oral; Male; F344

`Cc1cccc(Nc2cc(Cl)nc(SCC(=O)O)n2)c1C` was tested, and the concentration in plasma (Rat [1]; 0.25 h) was 397 ng/mL and the concentration in plasma (Rat [1]; 4 h) was 308 ng/mL.
`ClCCOCOCCCl` [Bis 2-Chloroethoxy Methane] was tested, and the concentration in plasma (Rat [2]; 20 min) was 8380 ng/mL, the concentration in plasma (Rat [2]; 6.667 h) was 25.4 ng/mL and the concentration in thymus (Rat [3]) was 32.1 ng/g. The concentration in heart (Rat [4]) was 6660 ng/g, the concentration in plasma (Rat [5]) was 238 ng/mL and the concentration in thymus (Rat [6]) was 4150 ng/g. The concentration in plasma (Rat [7]) was 9470 ng/mL, the concentration in heart (Rat [8]) was 7220 ng/g and the concentration in liver (Rat [9]) was 564 ng/g. The concentration in heart (Rat [10]) was 7270 ng/g and the concentration in plasma (Rat [11]) was 1930 ng/mL.
With `OCCC(F)(F)C(F)(F)C(F)(F)C(F)(F)C(F)(F)C(F)(F)C(F)(F)C(F)(F)F` [Fluorotelomer alcohol 8+2] the concentration in brain (Rat [12]) was 2670 ng/g, the concentration in liver (Rat [13]) was 1250 ng/g and the concentration in plasma (Rat [14]; 0.25 h) was 176 ng/mL. For the same compound, the concentration in plasma (Rat [14]; 24 h) was 3.78 ng/mL, the concentration in plasma (Rat [15]; 0.5 h) was 1220 ng/mL and the concentration in plasma (Rat [15]; 9 h) was 19.6 ng/mL.
`CCCCOC(=O)c1ccccc1C(=O)O` [Mono-n-butyl phthalate] showed a concentration in plasma (Rat [16]) of 14200 ng/mL, a concentration in plasma (Rat [17]) of 414 ng/mL and a concentration in plasma (Rat [18]) of 10200 ng/mL. For the same compound, the concentration in plasma (Rat [19]) was 3050 ng/mL, the concentration in plasma (Rat [20]) was 6970 ng/mL and the concentration in plasma (Rat [21]) was 8110 ng/mL. It also gave a concentration in plasma (Rat [22]) of 27100 ng/mL.
With `O=C(O)C(F)(F)C(F)(F)C(F)(F)C(F)(F)C(F)(F)C(F)(F)C(F)(F)C(F)(F)C(F)(F)F` [Perfluorodecanoic acid] the concentration in kidney (Rat [23]) was 1240 ng/g, the concentration in plasma (Rat [24]; 1 h) was 6520 ng/mL and the concentration in plasma (Rat [24]; 528 h) was 4120 ng/mL. The concentration in plasma (Rat [24]; 3360 h) was 71.5 ng/mL, the concentration in kidney (Rat [25]) was 67300 ng/g and the concentration in plasma (Rat [26]; 5 min) was 8200 ng/mL. For the same compound, the concentration in plasma (Rat [26]; 192 h) was 3280 ng/mL.
Work on `CCC1(c2ccccc2)C(=O)NC(=O)NC1=O` [Phenobarbital] yielded a concentration in plasma (Rat [27]) of 1540 ng/mL, a concentration in plasma (Rat [28]) of 5510 ng/mL and a concentration in plasma (Rat [29]) of 2440 ng/mL. It also gave a concentration in plasma (Rat [30]) of 990 ng/mL.
Work on `O=C(O)CSCC(=O)O` [Thiodiglycolic Acid] yielded a concentration in heart (Rat [31]) of 1150 ng/g, a concentration in heart (Rat [32]) of 5330 ng/g and a concentration in plasma (Rat [33]) of 676 ng/mL. The concentration in plasma (Rat [34]) was 1400 ng/mL and the concentration in thymus (Rat [35]) was 2580 ng/g.
With `O=C(O)C(Cl)Cl` [dichloroacetic acid] the concentration in plasma (Rat [36]; 20 min) was 7440 ng/mL, the concentration in plasma (Rat [36]; 2 h) was 1060 ng/mL and the concentration in plasma (Rat [37]; 20 min) was 8110 ng/mL. The concentration in plasma (Rat [37]; 2 h) was 2680 ng/mL and the concentration in plasma (Rat [38]) was 39400 ng/mL.
